Values of other authors, collected in US6951877B2, “Materials and methods for treating hypercholesterolemia” (ARYx Therapeutics, Inc., priority 2002, dated 2005).
Like-named read-outs stand apart in the source and are kept apart here.

Tests used:
patients [1] = tested on: patients
patients [2] = tested on: patients; remark: listed apart in the source
[3] = tested on: asymptomatic, middle-aged men with primary hypercholesterolemia

CC(C)c1c(C(=O)Nc2ccccc2)c(-c2ccccc2)c(-c2ccc(F)cc2)n1CC[C@@H](O)C[C@@H](O)CC(=O)O [atorvastatin]
patients with elevated liver enzymes (patients [1]; 40 mg): 0.6% | patients with elevated liver enzymes (patients [1]; 80 mg): 2.3% | patients with elevated liver enzymes (patients [1]; doses of 10 or 20 mg): 0.2%

COCc1c(C(C)C)nc(C(C)C)c(/C=C/[C@@H](O)C[C@@H](O)CC(=O)O)c1-c1ccc(F)cc1 [cerivastatin]
U.S. deaths due to severe rhabdomyolysis reported to FDA (patients [2]; all reports associated with use of cerivastatin): 31 | U.S. deaths due to severe rhabdomyolysis reported to FDA (patients [2]; concomitant gemfibrozil use): 12

Cc1ccc(C)c(OCCCC(C)(C)C(=O)O)c1 [gemfibrozil]
reduction in CHD risk ([3]; over the 5-year follow-up period): 34% | HDL cholesterol ([3]; treatment with gemfibrozil): increased HDL cholesterol | LDL cholesterol ([3]; treatment with gemfibrozil): lowered LDL, cholesterol
